Source: patent US4091097A, “Treatment of elevated histamine and uric acid levels” (Zaidan Hojin Biseibutsu Kagaku Kenkyu Kai, priority 1973, dated 1978)
Where two headings read alike, the source gives them in different places.

Tests used:
[1] = tested on: pyrexia induced by TTG No. 2; experiment: Antipyretic Activity in Pyrexia-Induced Rabbits; format: in vivo, Japanese rabbits; conditions: 200 mg./kg. oral
Procedure: Common white male Japanese rabbits, 2.0 - 3.0 kg. body weight, were injected through the ear vein with 20 μg./kg. of a pyrexia inducer TTG No. 2, purified polysaccharide preparation obtained from Pseudomonas aeruginosa (marketed by Fujisawa Pharmaceutical Company, Japan), and the body temperature was monitored with a rectal thermister-type thermometer. Three hours prior to the TTG injection four rabbits in each experimental section orally received the test drug in the dose of 200 mg./kg. One group received aspirin in a dose of 100 mg./kg and a control group no drug.

[2] = tested on: anaphylactic shock (egg albumin); experiment: Effect on the Anaphylactic Shock in Mice; format: in vivo, mice (DDY Strain)
Procedure: DDY Strain mice were sensitized by subcutaneous injection of a mixture of 0.1 ml. (100 μg.) egg albumin (Nutritional Biochemical Corp. U.S.A., 5 times crystallized) and 0.1 ml. Freund's complete adjuvant (Difco Co., U.S.A.) in saline. The mice were used for the test 3 months thereafter. The sensitized animals were divided in 3 groups of 4 animals each, which were subcutaneously administered the test compound several times before antigen challenge to cause anaphylactic shock. Group 1 received 100 mg./kg. 19 hours before and 50 mg./kg. 9, 4 and 1 hour before challenge. Group 2 received 100 mg./kg. 9 hours before and 50 mg./kg. 4 and 1 hour before challenge. Group 3 was a control group and received only saline solution.

rats = experiment: Subacute toxicity, daily doses for 32 consecutive days; format: in vivo; conditions: 3.1, 12.5, 50 and 200 mg./kg. daily, oral or i.p., 32 days
Acute toxicity, rats = conditions: rat, in vivo, printed 'for oral administration', then first of 'respective administration'
Procedure: (§1) The acute toxicity was determined for oral and intraperitoneal administration with mice and rats (6 mice and 2 rats in one dose group), and the LD50 value, i.e., the single application dose killing 50% of the test animals, was estimated.

histidine decarboxylase [3] = molecular target: T1, histidine decarboxylase (Rattus norvegicus, UniProt P16453); experiment: Inhibition of Histidine Decarboxylase (14C-histamine formation); format: biochemical, fetal rats
T1 construct: a crude enzyme preparation obtained from fetal rats; from tissue
T1 sequence (P16453 1-656): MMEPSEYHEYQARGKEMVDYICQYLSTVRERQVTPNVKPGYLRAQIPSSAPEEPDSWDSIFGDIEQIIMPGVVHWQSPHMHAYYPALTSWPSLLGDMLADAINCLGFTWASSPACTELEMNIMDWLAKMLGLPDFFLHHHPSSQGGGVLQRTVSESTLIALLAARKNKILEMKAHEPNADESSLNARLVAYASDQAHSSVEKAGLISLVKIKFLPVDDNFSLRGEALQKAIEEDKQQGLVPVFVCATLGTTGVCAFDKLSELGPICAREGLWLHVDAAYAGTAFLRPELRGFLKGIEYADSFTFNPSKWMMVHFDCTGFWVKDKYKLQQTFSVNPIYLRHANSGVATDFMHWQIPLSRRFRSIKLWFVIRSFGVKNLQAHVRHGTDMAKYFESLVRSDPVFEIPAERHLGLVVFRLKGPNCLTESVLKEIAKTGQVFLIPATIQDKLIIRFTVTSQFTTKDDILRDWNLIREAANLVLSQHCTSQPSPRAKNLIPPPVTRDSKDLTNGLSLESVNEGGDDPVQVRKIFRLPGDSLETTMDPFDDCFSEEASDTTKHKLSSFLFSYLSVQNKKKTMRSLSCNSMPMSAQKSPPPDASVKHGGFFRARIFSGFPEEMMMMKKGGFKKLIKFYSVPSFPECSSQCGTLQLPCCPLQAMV
Procedure: After two hours of incubation at 37° C., the histamine 2-^14 C formed was collected on an ion exchange resin ("Amberlite" CG-50, ammonia type) from which, after washing with water, the histamine was liberated in 1N aqueous ammonia solution and radioactivity was measured.

[4] = tested on: acetic acid-induced stretching movements; experiment: Analgesic Activity in mice (acetic acid stretching); format: in vivo, mice (DDY Strain); conditions: control (no drug) 53
Procedure: Male mice of the DDY Strain having mean body weight of 20 g. were divided to the groups of 10 animals each, to which compounds of this invention or aminopyrine in saline solution were administered intraperitoneally (i.p.). The dosage was 200, 50 or 12.5 mg./kg. Then 30 minutes later, 0.2 ml. per 20 g. body weight of 0.7% acetic acid in saline was injected intraperitoneally and the number of characteristic stretching movements counted for 20 minute period and compared with a control group receiving no analgesic.

mice and rats = conditions: in vivo
Procedure: as §1

animals [5] = conditions: cited from earlier work
histidine decarboxylase [6] = conditions: cited from earlier work
animals [7] = conditions: cited from earlier work; remark: listed apart in the source
[8] = 2 hrs. after TTG, control (no drug) 1.2
[9] = 4 hrs. after TTG, control (no drug) 1.6
[10] = Group 1 (100 mg./kg. 19 h, 50 mg./kg. 9, 4, 1 h before), mouse 1, control 5
[11] = Group 2 (100 mg./kg. 9 h, 50 mg./kg. 4, 1 h before), mouse 1, control 5
[12] = pH 6.8, two hours at 37° C., read-out: Histidine Decarboxylase Inhibition ID50

Row | SMILES | Antipyretic Activity: Elevation of Body Temperature [1, 8] | Antipyretic Activity: Elevation of Body Temperature [1, 9] | Symptoms emerged, time after challenge [2, 10] | Died, time after challenge ([2]; Group 1, mouse 1, control 15) | Symptoms emerged, time after challenge ([2]; Group 1, mouse 2, control 3) | Symptoms emerged, time after challenge [2, 11] | Symptoms emerged, time after challenge ([2]; Group 2, mouse 2, control 3) | Died, time after challenge ([2]; Group 2, mouse 2, control 20) | Symptoms emerged, time after challenge ([2]; Group 2, mouse 3, control 7) | Died, time after challenge ([2]; Group 2, mouse 4, control 20) | disease symptoms or abnormality attributable to drug dosing (rats) | weight gain (rats) | Analgesic Activity: Stretching Count (20 minutes) ([4]; 50 mg./kg. i.p.) | Analgesic Activity: Stretching Count (20 minutes) ([4]; 200 mg./kg. i.p.) | comparative toxicity (mice and rats) | IC50 (histidine decarboxylase [3]; [12]) | also measured
1 | O=C(Nc1cc(Cl)c(O)c(Cl)c1)c1ccccc1O [Compound 1] | 0.6 °C | 0.5 °C | 15 min | 30 min | 20 min | 35 min | 10 min | 30 min | 25 min | 40 min | no particular disease symptoms or abnornality attributable to the drug dosing was noted | the weight gain was normal | 11 | 4 | – | – | Died, time after challenge ([2]; Group 1, mouse 2, control 20): 35 min; Symptoms emerged, time after challenge ([2]; Group 2, mouse 4, control 3): 20 min; LD50 (Acute toxicity, rats): 2200 mg/kg; IC50 (histidine decarboxylase [3]): 22 nM
2 | O=C(Nc1ccc(O)c(Br)c1)c1ccc(O)cc1O [Compound 5] | 0.5 °C | 0.4 °C | – | – | – | – | – | – | – | – | – | – | 14 | 6 | comparatively more toxic than the others | 30 nM | –
3 | O=C(Nc1cc(Br)c(O)c(C(=O)O)c1)c1ccccc1O [Compound 6] | 0.5 °C | 0.5 °C | – | – | – | – | – | – | – | – | – | – | 25 | 12 | comparatively more toxic than the others | 260 nM | –
4 | CCC(=O)Oc1ccccc1C(=O)Nc1cc(Cl)c(OC(=O)CC)c(Cl)c1 [Compound 33] | 0.6 °C | 0.5 °C | 10 min | 30 min | 25 min | 20 min | 20 min | 45 min | 30 min | 40 min | no particular disease symptoms or abnornality attributable to the drug dosing was noted | the weight gain was normal | 12 | 5 | – | 39 nM | Symptoms emerged, time after challenge ([2]; Group 1, mouse 3, control 7): 30 min; Died, time after challenge ([2]; Group 2, mouse 1, control 15): 40 min
5 | Cc1cc(OC(=O)c2c(C)cc(O)cc2O)cc(O)c1C(=O)O [Lecanoric acid, 4'-carboxy-2,3'-dimethyl-4,6,5'-trihydroxyphenylbenzoate] | – | – | – | – | – | – | – | – | – | – | – | – | – | – | – | – | hydrolysis in animals (animals [5]): hydrolysed in animals; inhibitory activity to histidine decarboxylase (in words) (histidine decarboxylase [6]): strong inhibitory activity; anti-inflammatory activity (in words) (animals [7]): only weak anti-inflammatory activity
